This experiment relates to TGF/SMAD Signaling Pathway SBE Reporter-HEK293 Cell Line. Briefly: Luciferase screen, TGF/SMAD Signaling Pathway SBE Reporter-HEK293 cells stimulated with TGFβ. In kind it is cell-based. As to conditions: compound 4 hours before TGFβ 10 ng/mL, incubated overnight (18 hours), luminescence. The method, then: For the data in Table 1, the Bight-Glo™ Luciferase Assay System from Promega was used with TGF/SMAD Signaling Pathway SBE Reporter-HEK293 Cell Line from BPSbioscience. On day 1 SBE reporter-HEK293 cells were seeded at a density of 25,000 cells per well into a white clear-bottom 96-well microplate in 100 μL of growth medium without geneticin. The plate was incubated at 37° C. in a CO2 incubator for 24 hrs. The wells were renewed with 60 μL assay medium and treated with test compounds by adding 5 μL of compounds in medium. The concentration of test compound in medium is adjusted so that 5 μL will provide the desired molarity of the solution. After 4 hours, TGFβ was added to 10 ng/mL. The plate was incubated at 37° C. in a CO2 incubator overnight (18 hours). One hour prior to assay all medium was replaced. The luciferase assay was run using ONE-Step™ Luciferase Assay System by adding 100 μL of ONE-Step™ Luciferase reagent per well, rocking at room temperature for ˜15 to 30 minutes and measuring luminescence using a luminometer. The signals were normalized to percentage inhibition, with non-TGF treated cells as 100% inhibition, and the data were processed by Graphpad Prism.
The symbol “***” indicates IC50<100 nM, “**” indicates IC50≥100 nM but <10 μM, “*” indicates IC50≥10 μM.

A value given as a limit tells only on which side of the number the result lay.

Turning to `[2H]C([2H])([2H])C1(C([2H])([2H])[2H])Oc2ncc(-c3nc(-c4ccc(Cl)cc4)no3)cc2C[C@@H]1O` [Compound 9], the 50% inhibitory concentration (IC50) is below 0.1 µM.
For `O[C@H]1Cc2cc(-c3nnc(-c4ccc(Cl)cc4)o3)cnc2OC12CCC2` [Compound 7] the value was 0.1 to 10 µM; for `O[C@@H]1Cc2cc(-c3nc(-c4ccc(Cl)cc4)no3)cnc2OC12CCC2` [Compound 2], below 0.1 µM.
In the case of `O[C@H]1Cc2cc(-c3nc(-c4ccc(Cl)c(F)c4)no3)cnc2OC12CCC2` [Compound 4] it was at least 10 µM; in that of `O[C@H]1Cc2cc(-c3nc(-c4ccc(Cl)cc4)no3)cnc2OC12CCCC2` [Compound 3], at least 10 µM.
The molecule `Cn1ccc(-c2noc(-c3cnc4c(c3)C[C@H](O)C3(CCC3)O4)n2)n1` [Compound 6] had an IC50 of at least 10 µM.
Molecule `O[C@H]1Cc2cc(-c3nc(-c4ccc(Cl)cc4)no3)cnc2OC12CCC2` [Compound 1] displayed a 50% inhibitory concentration (IC50) of 0.1 to 10 µM.
In the case of `Cc1ccc(-c2noc(-c3cnc4c(c3)C[C@H](O)C3(CCC3)O4)n2)cc1` [Compound 5] it was at least 10 µM; in that of `O[C@H]1Cc2cc(-c3noc(-c4ccc(Cl)cc4)n3)cnc2OC12CCC2` [Compound 8], at least 10 µM.

The values are drawn from patent US20240051965A1, “OXYGEN-CONTAINING HETEROCYCLIC COMPOUND AND USE THEREOF” (Icahn School of Medicine at Mount Sinai, priority 2022, published 2024).
